The values below come from paper PMC9161972 (Journal of Medical Virology, 2022).

Data set [1] in a line: in vitro. The conditions noted are these: human.
Data set [2] deals with HIV/EBOV pseudovirus (Ebola virus Zaire Mayinga glycoprotein). Kind of data set: organism not typed. Type of data set: cell-based. The following applies: for IC50: read-out: IC50 HIV/EBOV.
In data set [3] the test system is HIV/MARV pseudovirus (Marburg virus Musoke glycoprotein). Kind of data set: organism not typed. It counts as cell-based. The conditions noted are these: for IC50: read-out: IC50 HIV/MARV.
For data set [4], the system named is HIV/MLAV pseudovirus (Měnglà virus glycoprotein). Description: organism not typed. Type of data set: cell-based. The conditions noted are these: for IC50: read-out: IC50 HIV/MLAV.
In data set [5] the test system is HIV/VSV pseudovirus (control). Type of data set: cell-based, vesicular stomatitis virus.
In data set [6] the test system is A549 cells.
Data set [7] deals with MLAV. The following applies: cited from earlier work.

Where two headings read alike, the source gives them in different places. Where a SMILES comes first, the peptide text is derived from it. The star is where a group is joined. Cbz = O=C(OCc1ccccc1)*; CHN2 = [N-]=[N+]=C*; tBu = CC(C)(C)*

In data set [1], `CN1[C@@H]2CC[C@H]1C[C@@H](OC(c1ccccc1)c1ccccc1)C2` [Benztropine] registered a CC50 of 54.5 ± 2 µM.
Take `CCCNC(=O)[C@H]1O[C@@H]1C(=O)N[C@H](C(=O)N1CCC[C@H]1C(=O)O)[C@@H](C)CC` [CA‐074]: the values for the IC50 in data set [2], in data set [3] and in data set [4] were 28.4 ± 6.56 µM, above 100 µM and above 100 µM, respectively. Further, the “inhibition of MARV pseudovirus entry at 100 µM (in words)” value in data set [3] (at 100 µM) was “resistant”. Further, the “inhibition of MLAV pseudovirus entry at 100 µM (in words)” value in data set [4] (at 100 µM) is “resistant”. For the same compound, the “inhibition of VSV pseudovirus entry at 100 µM (in words)” value in data set [5] is listed as “resistant”. This compound came in with a CC50 in data set [6] above 100 µM.
`CNCCC(Oc1ccc(C(F)(F)F)cc1)c1ccccc1` (centres unmarked) [Fluoxetine] registered a CC50 in data set [1] of 28.7 ± 0.1 µM.
On to `CC(C)(C)Oc1ccc(C[C@H](NC(=O)[C@H](Cc2ccccc2)NC(=O)OCc2ccccc2)C(=O)C=[N+]=[N-])cc1` [Cathepsin L Inhibitor III] (Cbz-Phe-Tyr(tBu)-CHN2), for which the IC50 came out at 0.75 ± 0.19 µM in data set [2], 2.38 ± 0.4 µM in data set [3] and 7.14 ± 1.5 µM in data set [4]. In addition, the “inhibition of VSV pseudovirus entry at 100 µM (in words)” value in data set [5] is “no inhibition”. The CC50 in data set [6] is above 100 µM.
Consider `CC(=O)N[C@@H](CC(C)C)C(=O)N[C@@H](CC(C)C)C(=O)N[C@H](C=O)CCCNC(=N)N` [Leupeptin], for which the IC50 was 0.41 ± 0.04 µM in data set [2] (A549, 48 h); 0.92 ± 0.27 µM in data set [3] (A549, 48 h); 1.24 ± 0.29 µM in data set [4] (A549, 48 h). In addition, the “inhibition of VSV pseudovirus entry (in words)” value in data set [5] is recorded as “ineffective”. Further, the CC50 in data set [1] was above 100 µM.
With `CN(C)CCCN1c2ccccc2CCc2ccccc21` [Imipramine], the IC50 in data set [2] (A549, 48 h) came to 2 ± 0.65 µM; in data set [3] (A549, 48 h), 5.55 ± 1.12 µM; in data set [4] (A549, 48 h), 7.91 ± 0.81 µM. Moreover, the CC50 in data set [1] stood at 76.3 ± 7.4 µM.
In the same order, the values of `CC(C)COCC(CN(Cc1ccccc1)c1ccccc1)N1CCCC1` (centres unmarked) [Bepridil] are 3.27 ± 0.4 µM, 7.37 ± 0.9 µM, 9.74 ± 0.94 µM and 34.7 ± 4.6 µM.
Take `CC(C)[C@H](NC(=O)OCc1ccccc1)C(=O)N[C@H](C=O)Cc1ccccc1` [MDL‐28170] (Cbz-Val-Phe-aldehyde): the “inhibition of EBOV pseudovirus entry (in words)” value in data set [2] is recorded as “can block”. Further, the IC50 in data set [2] (A549, 48 h) amounted to 1.44 ± 0.2 µM; in data set [3] (A549, 48 h), 1.69 ± 0.46 µM; in data set [4] (A549, 48 h) it was 9.46 ± 1.69 µM. The “inhibition of MARV pseudovirus entry (in words)” value in data set [3] is listed as “can block”. Moreover, the “inhibition of MLAV pseudovirus entry (in words)” value in data set [4] is “can block”. Also, the CC50 in data set [1] is above 100 µM.
For `NCCc1ccc(S(=O)(=O)F)cc1` [AEBSF], in data set [2], the “inhibition of EBOV pseudovirus entry (in words)” value is recorded as “limited inhibition” and the IC50 amounted to 19.1 ± 0.58 µM. In addition, in data set [3], the “inhibition of MARV pseudovirus entry (in words)” value is recorded as “limited inhibition” and the IC50 was 29 ± 1.7 µM. In data set [4], the “inhibition of MLAV pseudovirus entry (in words)” value was “unable to effectively inhibit” and the IC50 was 36.7 ± 10.4 µM. For the same compound, the CC50 in data set [6] was around 100 µM.
`CN(C)CCOc1ccc(/C(=C(/CCCl)c2ccccc2)c2ccccc2)cc1` [Toremifene]: the IC50 in data set [2] (A549, 48 h) is 0.06 ± 0.05 µM; in data set [3] (A549, 48 h), 1.75 ± 0.86 µM; in data set [4] (A549, 48 h), 3.63 ± 0.72 µM. Also, in data set [7], the “inhibition of MLAV (in words)” value was “inhibited MLAV”. This compound also registered a CC50 in data set [1] of 25.3 ± 1.6 µM.
`CN[C@H]1CC[C@@H](c2ccc(Cl)c(Cl)c2)c2ccccc21` [Sertraline] yielded a CC50 in data set [1] of 15 ± 0.9 µM.
Take `Fc1ccc([C@@H]2CCNC[C@H]2COc2ccc3c(c2)OCO3)cc1` [Paroxetine]: the IC50 is 0.36 ± 0.4 µM in data set [2] (A549, 48 h); 1.83 ± 0.66 µM in data set [3] (A549, 48 h); 4.88 ± 1.7 µM in data set [4] (A549, 48 h). Further, in data set [4], the “selectivity index (SI) with MLAV” value came to 5. In data set [1], this compound had a CC50 of 23.6 ± 2.5 µM.
With `CCCCOc1cc(C(=O)NCCN(CC)CC)c2ccccc2n1` [Dibucaine], the IC50 in data set [2] (A549, 48 h) came out at 2.93 ± 1.04 µM; in data set [3] (A549, 48 h), 5.82 ± 0.37 µM; in data set [4] (A549, 48 h) it was 10.8 ± 1.68 µM. The compound also registered a CC50 in data set [1] of 51.3 ± 1.2 µM.
